{"source": "paper PMC9127185", "about": "“A Pyridazinone Compound for Effectively Treating Non-alcoholic Steatohepatitis by Targeting THRβ” (Frontiers in Chemistry, 2022)", "assay": "Stability of liver microsomes study (mouse)", "type": "in vitro ADME", "conditions": "mouse liver microsomes 0.50 mg/ml, NADPH-generating system, 37°C, 0-90 min", "method": "Hypersil GOLD C18 column (4.6 × 150 mm, 5 μm, Thermo). A 0.025% ammonia aqueous solution in water (solvent A) and acetonitrile (solvent B) were used as mobile phases with gradient elution. The gradient was as follows: 0.01 min, 15% B; 5 min, 20% B; 12 min, 80% B; 16 min, 80% B; 16.01 min, 15% B; 19 min, 15% B; and 19.01 min, stopped. The timing interval was 19 min, and the flow rate was set at 1 ml/min.\nThe incubation system was carried out in 0.05 M Tris/KCl buffer (PH = 7.4) and included the following: pyrazinone compounds dissolved with dimethyl sulfoxide (DMSO), mouse liver microsomes and human liver microsomes at 0.50 mg/ml, 1.30 mM nicotinamide adenine dinucleotide sodium phosphate (NADP), 3.30 mM glucose-6-phosphate disodium salt (G-6-P), 0.40 units/mL glucose-6-phosphate dehydrogenase (G-6-PDH), and 3.30 mM magnesium chloride. […] After preincubation for 3 min in an 850-rpm blender (37°C), liver microsomes were added to initiate the incubation reaction (37°C). The incubation time was 0, 30, 60, and 90 min. After incubation, an equal volume of cold acetonitrile was added to stop the reaction, and an internal standard (0.05 mg/ml acetaminophen solution) was added. The samples were centrifuged at 10,000 rpm for 10 min to precipitate proteins ([Day et al., 2017]; [Manne et al., 2018]), and the 10 µL of the supernatant was taken for HPLC analysis.", "note": "Entries after “also recorded” stand apart in the source; their conditions may differ.", "data": [{"compound": "N#Cc1cn(-c2cc(Cl)c(Oc3cc(C4CCC4)c(=O)[nH]n3)c(Cl)c2)c(=O)[nH]c1=O", "note": "[YWS01125, 1-(3,5-dichloro-4-((5-cyclobutyl-6-oxo-1,6-dihydropyridazin-3-yl)oxy)phenyl)-2,4-dioxo-1,2,3,4-tetrahydropyrimidine-5-carbonitrile]", "values": [{"measurement": "Metabolic stability / metabolite formation in liver microsomes", "result": "no metabolites; also recorded: stable"}]}]}
